Where two headings read alike, the source gives them in different places.
How the values were obtained:
H. pylori [1] = test: Verification of resistance breakpoint: growth of laboratory strains on Columbia solid culture medium with added antibiotics, 72 hours; assay type: cell-based, Helicobacter pylori; settings: for growth of bacterial: antibiotic 0.0313 μg/mL
Experimental: The plates are cooled and inverted for approximately 10 mL/piece, marked properly for the subsequent use.
(2) Preparation of bacterial solution: H. pylori grown in logarithmic phase on a solid plate is taken to prepare a bacterial suspension by using BHI. The concentration OD600 is adjusted to 0.3 (1×10^8 CFU/mL), diluted 10 times for the subsequent use.
(3) Inoculation of bacterial solution: 10 μL of bacterial solution is taken and added to Columbia culture medium and the results are determined after cultivating for 72 hours.
(4) Result determination: the minimum drug concentration for no growth of bacteria on the plate is the minimum inhibitory concentration of the bacteria against the drug.

[2] = test system: clinical H. pylori strain; test: MIC of clinical H. pylori strains by micro dilution method; assay type: cell-based; settings: Helicobacter pylori, 72 h, approximately 1.0×10^6 CFU/mL per well, 72 hours, read-out: MIC
Experimental: (§1) The characteristic culture media (A, B, C, D, E) are cultivated at a constant temperature of 37° C. for 36 hours in a three gas incubator. The characteristic culture media are removed and placed in a natural environment for 30 minutes to observe whether there are discolorations at the point of the culture medium where the specimen is dropped in. […] Another 100 μL of the specimen is taken and coated on Columbia solid culture medium and cultivated in a three gas incubator at a constant temperature of 37° C. for 3 days to 5 days. The number of colonies on the plate is counted to determine the initial inoculation amount. The micro dilution method is adopted to test the MIC of clinical specimen H. pylori, the test is meaningful only when there is no bacterial growth in the negative control well without bacteria and there is bacterial growth in the positive well with bacteria but without antibiotics.
H. pylori single colony grown on Colombian culture medium is taken (which is confirmed as H. pylori by urease, oxidase, catalase, and PCR testing of CagA gene, as illustrated in FIG. 13) and the bacteria are increased. During the preparation of MIC plates and bacterial solution, H. pylori with logarithmic growth phase is taken to prepare a bacterial suspension by using BHI. The concentration OD600 is adjusted to 0.3 (1×10^8 CFU/mL, diluted 10 times, 10 μL is taken and added to wells 1-8 (with a bacterial solution concentration of approximately 1.0×10^6 CFU/mL per well, cultivated for 72 hours to determine the results.

H. pylori [3] = test: Drug resistance testing of laboratory strains on characteristic culture medium (discoloration after 36 hours); assay type: cell-based, Helicobacter pylori
Experimental: as §1, with “antibiotics. […] The results are recorded and whether the micro dilution method and characteristic culture medium are consistent with each other in evaluating the drug resistance of clinical H. pylori strains is compared. […]” for “antibiotics.”
(2) Inoculation of bacterial solution: 10 μL bacterial solution is taken and added dropwise onto a characteristic culture medium with 5 pieces (ABCDE) in total.
(3) Culture: all plates are moved to a three gas incubator and cultivated at 37° C. for 36 hours. After being taken out and placed in a natural environment for 30 minutes, whether the bacteria have resistance is determined based on the discoloration of the characteristic culture medium.

H. pylori [4] = test: MIC of laboratory H. pylori strains by micro dilution method; assay type: cell-based; settings: Helicobacter pylori
Experimental: (3) Preparation of bacterial solution: H. pylori grown in logarithmic phase on a solid plate is taken, BHI culture medium is used to prepare a bacterial suspension. The concentration of the bacterial solution is adjusted to 1×10^8 CFU/mL (OD600 is 0.3), diluted 10 times, 100 times, and 1000 times to implement a final concentration of […], for the subsequent use.
(4) Inoculation of bacterial solution: 10 μL of the above bacterial solution for the subsequent use is taken and added to wells the 1-10-th and the 12-th well (bacterial working concentration is 1×10^6 CFU/mL), the 11-th well serves as a non-bacterial control and only sterile water is added. The wells are cultivated for 72 hours to determine the results.

H. pylori [5] = settings: bacterial count 1×10^6 CFU/mL; cited from earlier work

Q: Which “growth of sensitive strains” value (H. pylori [1]; levofloxacin 0.5, clarithromycin 0.5, metronidazole 4, amoxicillin 0.5 μg/mL) does the source give for `CC1(C)S[C@@H]2[C@H](NC(=O)[C@H](N)c3ccc(O)cc3)C(=O)N2[C@H]1C(=O)O` [Amoxicillin, amoxicillin] here?
A: no sensitive strain grows

Q: What about the growth of bacterial (H. pylori [1]; strain 159) of the same molecule?
A: +

Q: And the growth of bacterial (H. pylori [1]; strain 161)?
A: +

Q: And the growth of bacterial (H. pylori [1]; strain 162)?
A: +

Q: What about the growth of bacterial (H. pylori [1]; strain 163) of the same molecule?
A: +

Q: What about the growth of bacterial (H. pylori [1]; strain 286) of the same molecule?
A: −

Q: What about the growth of bacterial (H. pylori [1]; strain 287) of the same molecule?
A: +

Q: And the growth of bacterial (H. pylori [1]; strain 289)?
A: +

Q: And the growth of bacterial (H. pylori [1]; strain 290)?
A: +

Q: And the growth of bacterial (H. pylori [1]; strain 26695)?
A: +

Q: What about the growth of bacterial (H. pylori [1]; strain G27) of the same molecule?
A: +

Q: And the MIC ([2]; clinical strain FY-31)?
A: 0.0312 µg/mL

Q: What about the MIC ([2]; clinical strain FY-43) of the same molecule?
A: 0.0312 µg/mL

Q: And the MIC ([2]; clinical strain FY-47)?
A: 0.0312 µg/mL

Q: And the MIC ([2]; clinical strain FY-52)?
A: < 0.0312 µg/mL

Q: And the “drug resistance determined by discoloration of characteristic culture medium” value (from here on “drug resistance determined”) (H. pylori [3]; strain 159, 1×10^6 CFU/mL)?
A: sensitive

Q: What about the “drug resistance determined” value (H. pylori [3]; strain 286, 1×10^6 CFU/mL) of the same molecule?
A: have developed resistance

Q: What about the “drug resistance determined” value (H. pylori [3]; strain 287, 1×10^6 CFU/mL) of the same molecule?
A: have developed resistance

Q: And the “drug resistance determined” value (H. pylori [3]; strain 289, 1×10^6 CFU/mL)?
A: have developed resistance

Q: What about the “drug resistance determined” value (H. pylori [3]; strain G27, 1×10^6 CFU/mL) of the same molecule?
A: does not develop resistance

Q: What about the MIC (H. pylori [4]; read-out: MICs, standard sensitive strains G27 and 26695, bacterial count 1×10^6 CFU/mL) of the same molecule?
A: 0.0156 to 0.0325 µg/mL

Q: And the MIC (H. pylori [4]; read-out: minimum inhibitory concentration (MIC), strain 159, bacterial count 10^6 CFU/mL (first line of the strain))?
A: 0.125 µg/mL

Q: And the MIC (H. pylori [4]; read-out: minimum inhibitory concentration (MIC), strain 161, bacterial count 10^6 CFU/mL (first line of the strain))?
A: 0.125 µg/mL

Q: What about the MIC (H. pylori [4]; read-out: minimum inhibitory concentration (MIC), strain 162, bacterial count 10^6 CFU/mL (first line of the strain)) of the same molecule?
A: 0.125 µg/mL

Q: And the MIC (H. pylori [4]; read-out: minimum inhibitory concentration (MIC), strain 163, bacterial count 10^4 CFU/mL)?
A: 0.25 µg/mL

Q: What about the MIC (H. pylori [4]; read-out: minimum inhibitory concentration (MIC), strain 163, bacterial count 10^6 CFU/mL (first line of the strain)) of the same molecule?
A: 1 µg/mL

Q: What about the MIC (H. pylori [4]; read-out: minimum inhibitory concentration (MIC), strain 163, bacterial count 10^6 CFU/mL (second line of the strain)) of the same molecule?
A: 0.5 µg/mL

Q: And the MIC (H. pylori [4]; read-out: minimum inhibitory concentration (MIC), strain 286, bacterial count 10^4 CFU/mL)?
A: 0.5 µg/mL

Q: What about the MIC (H. pylori [4]; read-out: minimum inhibitory concentration (MIC), strain 286, bacterial count 10^6 CFU/mL (first line of the strain)) of the same molecule?
A: 1 µg/mL

Q: What about the MIC (H. pylori [4]; read-out: minimum inhibitory concentration (MIC), strain 286, bacterial count 10^6 CFU/mL (second line of the strain)) of the same molecule?
A: 0.5 µg/mL

Q: What about the MIC (H. pylori [4]; read-out: minimum inhibitory concentration (MIC), strain 287, bacterial count 10^6 CFU/mL (first line of the strain)) of the same molecule?
A: 0.25 µg/mL

Q: What about the MIC (H. pylori [4]; read-out: minimum inhibitory concentration (MIC), strain 287, bacterial count 10^6 CFU/mL (second line of the strain)) of the same molecule?
A: 0.125 µg/mL

Q: What about the MIC (H. pylori [4]; read-out: minimum inhibitory concentration (MIC), strain 289, bacterial count 10^4 CFU/mL) of the same molecule?
A: 0.125 µg/mL

Q: And the MIC (H. pylori [4]; read-out: minimum inhibitory concentration (MIC), strain 289, bacterial count 10^6 CFU/mL (first line of the strain))?
A: 1 µg/mL

Q: And the MIC (H. pylori [4]; read-out: minimum inhibitory concentration (MIC), strain 289, bacterial count 10^6 CFU/mL (second line of the strain))?
A: 0.5 µg/mL

Q: What about the MIC (H. pylori [4]; read-out: minimum inhibitory concentration (MIC), strain 290, bacterial count 10^4 CFU/mL) of the same molecule?
A: 1 µg/mL

Q: What about the MIC (H. pylori [4]; read-out: minimum inhibitory concentration (MIC), strain 290, bacterial count 10^6 CFU/mL (first line of the strain)) of the same molecule?
A: 4 µg/mL

Q: What about the MIC (H. pylori [4]; read-out: minimum inhibitory concentration (MIC), strain 290, bacterial count 10^6 CFU/mL (second line of the strain)) of the same molecule?
A: 2 µg/mL

Q: What about the MIC (H. pylori [4]; read-out: minimum inhibitory concentration (MIC), strain 26695, bacterial count 10^4 CFU/mL) of the same molecule?
A: 0.0325 µg/mL

Q: And the MIC (H. pylori [4]; read-out: minimum inhibitory concentration (MIC), strain 26695, bacterial count 10^6 CFU/mL (second line of the strain))?
A: 0.0325 µg/mL

Q: What about the MIC (H. pylori [4]; strain G27, bacterial count 10^4 CFU/mL, read-out: minimum inhibitory concentration (MIC)) of the same molecule?
A: 0.00781 µg/mL

Q: What about the MIC (H. pylori [4]; strain G27, bacterial count 10^6 CFU/mL (first line of the strain), read-out: minimum inhibitory concentration (MIC)) of the same molecule?
A: 0.0312 µg/mL

Q: What about the MIC (H. pylori [4]; strain G27, bacterial count 10^6 CFU/mL (second line of the strain), read-out: minimum inhibitory concentration (MIC)) of the same molecule?
A: 0.0156 µg/mL

Q: And the “resistance breakpoints of H. pylori according to CLSI guidelines” value (H. pylori [5])?
A: 0.5 µg/mL
